Laboratory results as given in article PMC8501045, “Addressing MRSA infection and antibacterial resistance with peptoid polymers” (Nature Communications, 2021).

System: S. epidermidis 9397
Test: Mouse peritonitis model, CFU in organs, blood and IP fluid, S. epidermidis
Format: in vivo
Details: Figure 6e
Protocol: This infection model was conducted according to the previously reported method with slight modification. Female ICR mice (21–24 g) were used for MRSA-infected peritonitis model. Mice were infected by intraperitoneal administration of 0.2 mL of S. aureus USA300 LAC in saline (7.5 × 10^8 CFU/mL) supplemented with 5% mucin. […] Once the infected mice died, peritoneal lavage was performed by injecting 3.0 mL of saline into the peritoneal cavity and massaging the abdomen. Subsequently, the abdomen was opened and peritoneal fluid was recovered from the abdominal cavity for analysis. Blood samples were collected through cardiac puncture for analysis of CFU/mL. Then, different organs including the heart, liver, spleen, lung, and kidney were removed and homogenized in 0.1% TX-100 solution. The homogenate was serially diluted for plating on LB agar. After incubation at 37 °C for 14 h, the number of colonies on the plate was counted to calculate the bacteria burden. Surviving mice were euthanized at 48 h after infection. The blood, peritoneal fluid, and organs were collected for the determination of bacterial colonies. […] For the pretreatment group, mice were sacrificed and tissues were harvested to determine the CFU at 1 h post infection.
For experiments of S. epidermidis and S. haemolyticus infections, female ICR mice (22–24 g) were rendered neutropenic by treatment with 150 and 100 mg/kg of cyclophosphamide intraperitoneally at 4 days and 1 day prior to infection. Mice were infected by intraperitoneal administration of 0.2 mL of S. epidermidis 9397 (5.1 × 10^9 CFU/mL) or S. haemolyticus 0202 (2.6 × 10^9 CFU/mL) in saline. Other experiment conditions were similar to those in MRSA peritonitis model.

Question: For CN[C@H](CC(C)C)C(=O)N[C@H]1C(=O)N[C@@H](CC(N)=O)C(=O)N[C@H]2C(=O)N[C@H]3C(=O)N[C@H](C(=O)N[C@H](C(=O)O)c4cc(O)cc(O)c4-c4cc3ccc4O)[C@H](O)c3ccc(c(Cl)c3)Oc3cc2cc(c3O[C@@H]2O[C@H](CO)[C@@H](O)[C@H](O)[C@H]2O[C@H]2C[C@](C)(N)[C@H](O)[C@H](C)O2)Oc2ccc(cc2Cl)[C@H]1O [Vancomycin], which “Log10(CFU/mL IP fluid)” value (individual mouse 1 of 6) is on record?
Answer: 6.824 Log10(CFU/mL)

Question: What about the “Log10(CFU/mL IP fluid)” value (individual mouse 2 of 6) of the same compound?
Answer: 5.982 Log10(CFU/mL)

Question: And the “Log10(CFU/mL IP fluid)” value (individual mouse 3 of 6)?
Answer: 4.068 Log10(CFU/mL)

Question: What about the “Log10(CFU/mL IP fluid)” value (individual mouse 4 of 6) of the same compound?
Answer: 3.222 Log10(CFU/mL)

Question: And the “Log10(CFU/mL IP fluid)” value (individual mouse 5 of 6)?
Answer: 3.067 Log10(CFU/mL)

Question: What about the “Log10(CFU/mL IP fluid)” value (individual mouse 6 of 6) of the same compound?
Answer: 4.206 Log10(CFU/mL)

Question: And the “Log10(CFU/mL Blood)” value (individual mouse 1 of 6)?
Answer: 4.311 Log10(CFU/mL)

Question: What about the “Log10(CFU/mL Blood)” value (individual mouse 2 of 6) of the same compound?
Answer: 4.38 Log10(CFU/mL)

Question: And the “Log10(CFU/mL Blood)” value (individual mouse 3 of 6)?
Answer: 2.602 Log10(CFU/mL)

Question: And the “Log10(CFU/mL Blood)” value (individual mouse 4 of 6)?
Answer: 2.824 Log10(CFU/mL)

Question: And the “Log10(CFU/mL Blood)” value (individual mouse 5 of 6)?
Answer: 0 Log10(CFU/mL)

Question: What about the “Log10(CFU/mL Blood)” value (individual mouse 6 of 6) of the same compound?
Answer: 2.301 Log10(CFU/mL)

Question: What about the “Log10(CFU/g Heart)” value (individual mouse 1 of 6) of the same compound?
Answer: 5.45 Log10(CFU/g)

Question: What about the “Log10(CFU/g Heart)” value (individual mouse 2 of 6) of the same compound?
Answer: 5.747 Log10(CFU/g)

Question: And the “Log10(CFU/g Heart)” value (individual mouse 3 of 6)?
Answer: 5.222 Log10(CFU/g)

Question: And the “Log10(CFU/g Heart)” value (individual mouse 4 of 6)?
Answer: 5.315 Log10(CFU/g)

Question: What about the “Log10(CFU/g Heart)” value (individual mouse 5 of 6) of the same compound?
Answer: 4.186 Log10(CFU/g)

Question: And the “Log10(CFU/g Heart)” value (individual mouse 6 of 6)?
Answer: 4.735 Log10(CFU/g)

Question: And the “Log10(CFU/g Kidney)” value (individual mouse 1 of 6)?
Answer: 6.633 Log10(CFU/g)

Question: What about the “Log10(CFU/g Kidney)” value (individual mouse 2 of 6) of the same compound?
Answer: 6.452 Log10(CFU/g)

Question: And the “Log10(CFU/g Kidney)” value (individual mouse 3 of 6)?
Answer: 4.81 Log10(CFU/g)

Question: What about the “Log10(CFU/g Kidney)” value (individual mouse 4 of 6) of the same compound?
Answer: 4.699 Log10(CFU/g)

Question: And the “Log10(CFU/g Kidney)” value (individual mouse 5 of 6)?
Answer: 4.119 Log10(CFU/g)

Question: What about the “Log10(CFU/g Kidney)” value (individual mouse 6 of 6) of the same compound?
Answer: 4.752 Log10(CFU/g)

Question: And the “Log10(CFU/g Liver)” value (individual mouse 1 of 6)?
Answer: 7.125 Log10(CFU/g)

Question: What about the “Log10(CFU/g Liver)” value (individual mouse 2 of 6) of the same compound?
Answer: 7.288 Log10(CFU/g)

Question: What about the “Log10(CFU/g Liver)” value (individual mouse 3 of 6) of the same compound?
Answer: 4.887 Log10(CFU/g)

Question: And the “Log10(CFU/g Liver)” value (individual mouse 4 of 6)?
Answer: 4.845 Log10(CFU/g)

Question: And the “Log10(CFU/g Liver)” value (individual mouse 5 of 6)?
Answer: 3.985 Log10(CFU/g)

Question: What about the “Log10(CFU/g Liver)” value (individual mouse 6 of 6) of the same compound?
Answer: 5.176 Log10(CFU/g)

Question: What about the “Log10(CFU/g Lung)” value (individual mouse 1 of 6) of the same compound?
Answer: 6.477 Log10(CFU/g)

Question: What about the “Log10(CFU/g Lung)” value (individual mouse 2 of 6) of the same compound?
Answer: 5.954 Log10(CFU/g)

Question: And the “Log10(CFU/g Lung)” value (individual mouse 3 of 6)?
Answer: 6.211 Log10(CFU/g)

Question: What about the “Log10(CFU/g Lung)” value (individual mouse 4 of 6) of the same compound?
Answer: 5.171 Log10(CFU/g)

Question: And the “Log10(CFU/g Lung)” value (individual mouse 5 of 6)?
Answer: 3.564 Log10(CFU/g)

Question: And the “Log10(CFU/g Lung)” value (individual mouse 6 of 6)?
Answer: 4.434 Log10(CFU/g)

Question: What about the “Log10(CFU/g Spleen)” value (individual mouse 1 of 6) of the same compound?
Answer: 7.954 Log10(CFU/g)

Question: What about the “Log10(CFU/g Spleen)” value (individual mouse 2 of 6) of the same compound?
Answer: 7.349 Log10(CFU/g)

Question: What about the “Log10(CFU/g Spleen)” value (individual mouse 3 of 6) of the same compound?
Answer: 7.368 Log10(CFU/g)

Question: What about the “Log10(CFU/g Spleen)” value (individual mouse 4 of 6) of the same compound?
Answer: 5.666 Log10(CFU/g)

Question: What about the “Log10(CFU/g Spleen)” value (individual mouse 5 of 6) of the same compound?
Answer: 5.977 Log10(CFU/g)

Question: And the “Log10(CFU/g Spleen)” value (individual mouse 6 of 6)?
Answer: 6.041 Log10(CFU/g)
